Results: patent US6413956B1, “Substituted 4-oxo-quinoline-3-carboxamides” (Neurogen Corporation, priority 1999, dated 2002)

| melting point | SMILES |
| --- | --- |
| 184 °C (dec.) | CNC(C)c1cccc(CNC(=O)c2c[nH]c3ccc(Cl)cc3c2=O)c1.Cl (centres unmarked) |
| 203 to 208 °C | Cl.O=C(NCc1cccc(CN2CCOCC2)c1)c1c[nH]c2ccccc2c1=O |
| 177 to 180 °C | Cl.O=C(NCc1ccc(CN2CCOCC2)cc1)c1c[nH]c2ccccc2c1=O |
| 120 to 122 °C | Cc1nc(Cc2ccc(CNC(=O)c3c[nH]c4ccc(F)cc4c3=O)cc2)c[nH]1.Cl |
| 252 °C (dec.) | CCNCc1ccc(CNC(=O)c2c[nH]c3ccccc3c2=O)cc1.Cl |
| 198 °C (dec.) | CN(C)Cc1ccc(CNC(=O)c2c[nH]c3ccc(Cl)cc3c2=O)cc1.Cl |
| 178 °C (dec.) | CN(C)Cc1cccc(CNC(=O)c2c[nH]c3ccc(Cl)cc3c2=O)c1.Cl |
| 222 to 225 °C (dec.) | CCOc1ccc2[nH]cc(C(=O)NCc3ccc(CN(C)C)cc3)c(=O)c2c1.Cl |
| 235 to 237 °C | Cl.O=C(NCc1ccccc1)c1c[nH]c2c(F)cccc2c1=O |
| 205 to 207 °C | CCCCNC(=O)c1c[nH]c2c(F)cccc2c1=O.Cl |
| 205 to 209 °C | O=C(NCC1CCCO1)c1c[nH]c2ccccc2c1=O (centres unmarked) [compound 1, N-tetrahydrofurfuryl 4-oxo-1,4-dihydro-quinoline-3-carboxamide] |
| 180 to 181 °C | CC(C)CCNC(=O)c1c[nH]c2ccccc2c1=O [compound 4, N-Isoamyl 4-oxo-1,4-dihydro-quinoline-3-carboxamide] |
| 173 °C | O=C(NCc1ccccc1)c1c[nH]c2ccccc2c1=O [compound 5, N-Benzyl 4-oxo-1,4-dihydro-quinoline-3-carboxamide] |
| 213 to 215 °C | O=C(NCc1ccc(F)cc1)c1c[nH]c2ccccc2c1=O [compound 8, N-(4-Fluorobenzyl) 4-oxo-1,4-dihydro-quinoline-3-carboxamide] |
| 193 to 195 °C | O=C(NCc1ccco1)c1c[nH]c2ccccc2c1=O [compound 9, N-[(2-Furanyl)methyl] 4-oxo-1,4-dihydro-quinoline-3-carboxamide] |
| 207 °C | O=C(NCc1ccc2c(c1)OCO2)c1c[nH]c2ccccc2c1=O [compound 11, N-Piperonyl 4-oxo-1,4-dihydro-quinoline-3-carboxamide] |
| 211 to 212 °C | COc1ccc(CNC(=O)c2c[nH]c3ccccc3c2=O)cc1OC [compound 12, N-(3,4-Dimethoxybenzyl) 4-oxo-1,4-dihydro-quinoline-3-carboxamide] |
| 235 to 240 °C | O=C(NCc1cccs1)c1c[nH]c2ccccc2c1=O [compound 13, N-[(2-Thienyl)methyl] 4-oxo-1,4-dihydro-quinoline-3-carboxamide] |
| 203 to 205 °C | CCOc1ccc(CNC(=O)c2c[nH]c3ccccc3c2=O)cc1 [compound 16, N-(4-Ethoxybenzyl) 4-oxo-1,4-dihydro-quinoline-3-carboxamide] |
| 141 to 142 °C | CCOCCCNC(=O)c1c[nH]c2ccccc2c1=O [compound 17, N-(3-Ethoxypropyl) 4-oxo-1,4-dihydro-quinoline-3-carboxamide] |
| 148 °C (dec.) | CCNCc1cccc(CNC(=O)c2c[nH]c3ccc(Cl)cc3c2=O)c1 [compound 28, N-[3-(Ethylaminomethyl)benzyl] 6-chloro-4-oxo-1,4-dihydro-quinoline-3-carboxamide] |
| 195 to 196 °C | COCc1ccc2[nH]cc(C(=O)NCc3ccccc3)c(=O)c2c1 [compound 31, N-Benzyl 6-methoxymethyl-4-oxo-1,4-dihydro-quinoline-3-carboxamide] |
| 225 to 226 °C | COCc1ccc2[nH]cc(C(=O)NCc3cccs3)c(=O)c2c1 [compound 32, N-[(2-Thienyl)methyl] 6-methoxymethyl-4-oxo-1,4-dihydro-quinoline-3-carboxamide] |
| 95 to 97 °C | CCOCCCNC(=O)c1c[nH]c2ccc(COC)cc2c1=O [compound 33, N-[(3-Ethoxy)propyl] 6-methoxymethyl-4-oxo-1,4-dihydro-quinoline-3-carboxamide] |
| 157 to 159 °C | CCCCNC(=O)c1c[nH]c2ccc(COC)cc2c1=O [compound 34, N-Butyl 6-methoxymethyl-4-oxo-1,4-dihydro-quinoline-3-carboxamide] |

| melting point | SMILES |
| --- | --- |
| 209 to 211 °C | CCOc1ccc2[nH]cc(C(=O)NCc3ccccc3)c(=O)c2c1 [compound 39, N-Benzyl 6-ethoxy-4-oxo-1,4-dihydro-quinoline-3-carboxamide] |
| 223 to 224 °C | CCOc1ccc2[nH]cc(C(=O)NCc3cccs3)c(=O)c2c1 [compound 41, N-[(2-Thienyl)methyl] 6-ethoxy-4-oxo-1,4-dihydro-quinoline-3-carboxamide] |
| 179 to 181 °C | CCOCCCNC(=O)c1c[nH]c2ccc(OCC)cc2c1=O [compound 42, N-[(3-Ethoxy)propyl] 6-ethoxy-4-oxo-1,4-dihydro-quinoline-3-carboxamide] |
| 163 to 164 °C | CCOc1ccc2[nH]cc(C(=O)NCCCOC(C)C)c(=O)c2c1 [compound 43, N-[(3-Isopropoxy)propyl] 6-ethoxy-4-oxo-1,4-dihydro-quinoline-3-carboxamide] |
| 181 to 182 °C | CCOc1ccc2[nH]cc(C(=O)NCC3CCCO3)c(=O)c2c1 (centres unmarked) [compound 44, N-[(2-Tetrahydrofuranyl)methyl] 6-ethoxy-4-oxo-1,4-dihydro-quinoline-3-carboxamide] |
| 180 to 183 °C | CCOc1ccc2[nH]cc(C(=O)NCCC(C)C)c(=O)c2c1 [compound 45, N-Isoamyl 6-ethoxy-4-oxo-1,4-dihydro-quinoline-3-carboxamide] |
| 191 to 193 °C | CCOc1ccc2[nH]cc(C(=O)NC3CCCCC3)c(=O)c2c1 [compound 46, N-Cyclohexyl 6-ethoxy-4-oxo-1,4-dihydro-quinoline-3-carboxamide] |
| 226 to 228 °C | CCOc1ccc2[nH]cc(C(=O)NCc3ccc4c(c3)OCO4)c(=O)c2c1 [compound 47, N-Piperonyl 6-ethoxy-4-oxo-1,4-dihydro-quinoline-3-carboxamide] |
| 175 to 177 °C | CCOc1ccc2[nH]cc(C(=O)NCCCOC)c(=O)c2c1 [compound 48, N-[(3-Methoxy)propyl] 6-ethoxy-4-oxo-1,4-dihydro-quinoline-3-carboxamide] |
| 237 to 238 °C | CCOc1ccc2[nH]cc(C(=O)NCc3ccccc3F)c(=O)c2c1 [compound 49, N-(2-Fluorobenzyl) 6-ethoxy-4-oxo-1,4-dihydro-quinoline-3-carboxamide] |
| 210 to 212 °C | CCOc1ccc2[nH]cc(C(=O)NCc3cccc(F)c3)c(=O)c2c1 [compound 50, N-(3-Fluorobenzyl) 6-ethoxy-4-oxo-1,4-dihydro-quinoline-3-carboxamide] |
| 221 to 222 °C | CCOc1ccc2[nH]cc(C(=O)NCc3ccccn3)c(=O)c2c1 [compound 51, N-[(2-Pyridyl)methyl] 6-ethoxy-4-oxo-1,4-dihydro-quinoline-3-carboxamide] |
| 222 to 224 °C | CCOc1ccc2[nH]cc(C(=O)NCc3cccnc3)c(=O)c2c1 [compound 52, N-[(3-Pyridyl)methyl] 6-ethoxy-4-oxo-1,4-dihydro-quinoline-3-carboxamide] |
| 190 to 191 °C | CCCCNC(=O)c1c[nH]c2ccc(OCC)cc2c1=O [compound 53, N-Butyl 6-ethoxy-4-oxo-1,4-dihydro-quinoline-3-carboxamide] |
| 180 to 183 °C | CCCCCNC(=O)c1c[nH]c2ccc(OCC)cc2c1=O [compound 54, N-Pentyl 6-ethoxy-4-oxo-1,4-dihydro-quinoline-3-carboxamide] |
| 219 to 221 °C | CCCNC(=O)c1c[nH]c2ccc(OCC)cc2c1=O [compound 55, N-Propyl 6-ethoxy-4-oxo-1,4-dihydro-quinoline-3-carboxamide] |
| 214 to 216 °C | CCOc1ccc2[nH]cc(C(=O)NCC(C)C)c(=O)c2c1 [compound 56, N-[(2-Methyl)propyl] 6-ethoxy-4-oxo-1,4-dihydro-quinoline-3-carboxamide] |
| 181 to 182 °C | CCCCCCNC(=O)c1c[nH]c2ccc(OCC)cc2c1=O [compound 57, N-Hexyl 6-ethoxy-4-oxo-1,4-dihydro-quinoline-3-carboxamide] |
| 279 to 281 °C | CCOc1ccc2[nH]cc(C(=O)NC)c(=O)c2c1 [compound 58, N-Methyl 6-ethoxy-4-oxo-1,4-dihydro-quinoline-3-carboxamide] |
| 203 to 205 °C | CCOc1ccc2[nH]cc(C(=O)NCc3ccsc3)c(=O)c2c1 [compound 59, N-[(3-Thienyl)methyl] 6-ethoxy-4-oxo-1,4-dihydro-quinoline-3-carboxamide] |
| 161 to 165 °C | CCOc1ccc2[nH]cc(C(=O)NCc3ccc(Cn4ccnc4)cc3)c(=O)c2c1 [compound 66, N-[4-[(1-Imidazolyl)methyl]benzyl} 6-ethoxy-4-oxo-1,4-dihydro-quinoline-3-carboxamide] |
| 273 to 276 °C | O=C(NCc1ccc(F)cc1)c1c[nH]c2ccc(Cl)cc2c1=O [compound 73, N-4-Fluorobenzyl 6-chloro-4-oxo-1,4-dihydroquinoline-3-carboxamide] |
| 162 to 164 °C | CCOc1ccc2[nH]cc(C(=O)NCc3ccc(CN(Cc4ccccc4)Cc4ccccc4)cc3)c(=O)c2c1 [compound 82, N-[4-(Dibenzylaminomethyl)benzyl] 6-ethoxy-4-oxo-1,4-dihydro-quinoline-3-carboxamide] |
| 123 to 127 °C | CCOc1ccc2[nH]cc(C(=O)NCc3ccc(CNCCN4CCOCC4)cc3)c(=O)c2c1 [compound 83, N-{4-[[2-(4-Morpholinyl)ethyl]aminomethyl]benzyl} 6-ethoxy-4-oxo-1,4-dihydro-quinoline-3-carboxamide] |
| 129 to 132 °C | CCOc1ccc2[nH]cc(C(=O)NCc3ccc(CN(CC)Cc4ccccc4)cc3)c(=O)c2c1 [compound 97, N-{4-[(N-Benzyl-N-ethylamino)methyl]benzyl} 6-ethoxy-4-oxo-1,4-dihydroquinoline-3-carboxamide] |
